# Results: US20110015267A1 (priority 2009, published 2011)
# Entries after “also recorded” stand apart in the source; their conditions may differ. Where a name gives a salt, the structure may show the parent alone.
# Tests used:
# [1] = Conventional valproates combined with L-carnitine inner salt in water; type: physicochemical; details: for Result When Combined With L-Carnitine Inner Salt in Water: dissolution / stability behaviour of the valproate in water
# Description: The inventor investigated methods for the preparation of long-needed, palatable liquid compositions having quantitatively precise defined proportions of valproate and L-carnitine in water. […] Instead, oily droplets of valproic acid adhered to the formulation vessel, making it impossible to formulate compositions having quantitatively precise defined proportions of valproate. […] This lack of purity renders it impossible to weigh calculated quantities of the magnesium valproate of '850 that are required for a quantitatively precise defined formulation and formulate a composition having the corresponding quantitatively precise defined proportions of valproate and L-carnitine; the weighed quantities of the magnesium valproate of '850 will contain variable proportions of impurities that are water-soluble, partially water-soluble, and water-insoluble as well as the magnesium valproate, and the resulting formulation will contain less than quantitatively precise proportions of valproate. […] Potassium valproate, cesium valproate, and rubidium valproate were not tested, because high concentrations of potassium, cesium, and rubidium are toxic.
# [2] = Method B: incremental addition of magnesium valproate salt to L-carnitine inner salt solution
# [3] = Solubility limit of magnesium valproate salts in purified water USP (incremental addition)
# Procedure: The experiment was repeated but valproate was added as L-carnitine magnesium valproate. Incremental portions of L-carnitine magnesium valproate were added to purified water until the solubility limit was reached, as indicated by the presence of white solid in the colorless aqueous supernatant. […] The solution was divided into portions, and known masses of L-carnitine inner salt, accurately weighed, were added to provide solutions having the compositions shown in Table 2. Each solution was tested by two analysts.
# [4] = Sterilization of liquid dosage form by heating or filtration; type: physicochemical
# Description: Therefore, aqueous solutions of the invention must be prepared to be free of microbial contaminants. Most preferably, water that has been purified to meet US Pharmacopeial standards is used in preparing aqueous solutions of the invention. [U.S. Pharmacopeia, Volume 32. U.S. Pharmacopeial Convention, Rockville, Md. USP Monograph entitled “Purified Water” and chapter entitled “Water for Pharmaceutical Purposes”<1231>.] Water can be purified in known ways to be free of trace contaminants and microbes that cause undesirable side reactions when administered therapeutically to a subject. However, L-carnitine decomposes when subjected to heating. Therefore, the inventor has used aseptic processing and sterilization by filtration through a filter having a pore-size sufficiently small to allow passage of the composition of the invention through the pores but prevent passage of microbes to prepare compositions for pharmaceutical use.
# A palatable liquid dosage form of the invention is divided into portions. Each portion is subjected to sterilization by (a) heating or (b) filtration through a filter membrane having a […] pore size.
# [5] = cited from earlier work
# [6] = cited from earlier work; remark: listed apart in the source
# [7] = reported; not tested by the inventor; cited from earlier work
# [8] = with about 1,000 mg/mL L-carnitine
molecule,measurement,setting,value
CCCC(CCC)C(=O)O [Divalproex sodium],Result When Combined With L-Carnitine Inner Salt in Water,[1],decomposed on addition to water
"CCCC(CCC)C(=O)[O-].CCCC(CCC)C(=O)[O-].C[N+](C)(C)C[C@H](O)CC(=O)[O-].[Mg+2] [L-carnitine magnesium valproate, L-Carnitine magnesium valproate]",valproate concentration at the limit of solubility,"[2]; in aqueous L-carnitine inner salt, about 1,000 mg/mL L-carnitine",about 150 mg/mL
same,appearance of solution at the limit of solubility,[2]; [8],clear and colorless
same,odor of solution at the limit of solubility,[2]; [8],no odor
same,pH of solution,[2]; [8],near neutral
same,taste of solution at the limit of solubility,[2]; [8],no taste
same,"solubility limit, valproate concentration of the solution",[3],about 150 mg/mL
"C[N+](C)(C)CC(O)CC(=O)[O-] [L-carnitine, L-Carnitine inner salt]",stability when subjected to heating,[4],decomposes
CCCC(CCC)C(=O)[O-].[Na+] [Sodium valproate],Result When Combined With L-Carnitine Inner Salt in Water: solution appearance,[1],weighing. Solution was clear &
same,Result When Combined With L-Carnitine Inner Salt in Water,[1],rapidly adsorbed water from the atmosphere; also recorded: Sodium valproate is hygroscopic
"CCCC(CCC)C(=O)O [Valproic acid, 2-propylpentanoic acid]",solubility in water,[5],very slightly soluble in water
same,Result When Combined With L-Carnitine Inner Salt in Water,[1]; listed as valproic acid,poorly soluble in water
CCCC(CCC)C(=O)O [valproate],absorption from the gastrointestinal tract,[6]; all conventional dosage forms,rapidly and nearly completely absorbed
same,time of peak plasma concentrations after ingestion,[6]; all conventional dosage forms,1 to 4 h
same,excreted in the urine as an L-carnitine ester,[6]; humans and other mammals,3%
same,metabolized by β- and ω-oxidations in mitochondria and the cytosol,[6]; humans and other mammals,17%
same,metabolized in the liver by direct glucuronidation,[6]; humans and other mammals,80%
Calcium valproate,carcinogenicity,[7],been reported to be carcinogenic.
Magnesium valproate,Result When Combined With L-Carnitine Inner Salt in Water,[1],did not dissolve completely in water; also recorded: failed to dissolve completely;
Magnesium valproate hydrate,pH of solution,[2]; [8],near neutral
